Our source for the IC50 values is the supplement of paper PMC3493320.

Usually IC50 stands for the concentration that gives 50% inhibition. Lower therefore signals greater potency in that assay.

For this assay, the system named is NCI-H295R. The assay can be described thus: IC50 (antiproliferative, ATP content). The settings on record: 48 h. Summed up:
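In 1536-well plates, 1500 adrenocortical carcinoma cells per well were grown overnight in serum-free, ITS-supplemented DMEM before compounds were pin-transferred at 8 final concentrations (0.6 nM to 46 µM). After 48 h at 37 °C and 5% CO2, CellTiter-Glo luminescence was read following 20 min at room temperature and normalised to vehicle and positive-control wells. IC50 values came from logistic curve fits, with compounds lacking any concentration response listed as above the top dose.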
Turning to `Cc1ncc(C[n+]2csc(CCOP(=O)(O)OP(=O)(O)O)c2C)c(N)n1.[Cl-]`, the IC50 was above 46 µM.
`O=C1CCC(N2C(=O)c3ccccc3C2=O)C(=O)N1` (stereo not given) registered an IC50 above 46 µM.
For the compound `CC(=O)NC(=O)c1ccccc1O`, the IC50 is above 46 µM.
Compound `CCN(CC)CCOC(=O)C(c1ccccc1)c1ccccc1.Cl` yielded an IC50 above 46 µM.
`CCCCCCNC(=O)n1cc(F)c(=O)[nH]c1=O`: the IC50 is above 46 µM.
For the compound `CCCCC(C)(O)C/C=C/[C@H]1[C@H](O)CC(=O)[C@@H]1CCCCCCC(=O)OC` (stereo not given in full), the IC50 is above 46 µM.
The compound `CC(=O)[C@]2(CC[C@H]3[C@@H]4C[C@H](C)\C1=C\C(=O)CC[C@]1(C)[C@H]4CC[C@]23C)OC(C)=O` came in with an IC50 above 46 µM.
Compound `CCCCc1nc(Cl)c(CO)n1Cc1ccc(-c2ccccc2-c2nnn[nH]2)cc1` showed an IC50 above 46 µM.
In the case of `CC(C)(Oc1ccc(CCNC(=O)c2ccc(Cl)cc2)cc1)C(=O)O` it was above 46 µM.
In the case of `CC(=O)OCC(=O)[C@@]1(O)[C@H](C)C[C@H]2[C@@H]3CCC4=CC(=O)C=C[C@]4(C)[C@@]3(F)[C@@H](O)C[C@@]21C`, the IC50 is above 46 µM.
Compound `Nc1cc(N2CCCCC2)nc(N)[n+]1[O-]` showed an IC50 above 46 µM.
`Cc1nc2c([nH]1)c(=O)n(C)c(=O)n2Cc1ccco1` registered an IC50 above 46 µM.
As to `NC1=NC=NC2=C1N=CN2[C@@H]3O[C@H](COP(OP(OC[C@H]4O[C@@H]([N@@+]5=CC=CC(C(N)=O)=C5)[C@H](O)[C@@H]4O)([O-])=O)(O)=O)[C@@H](O)[C@H]3O`, the IC50 was above 46 µM.
As for `CC=Cc1ccc(O)c(OC)c1`, the IC50 was above 46 µM.
Turning to `C#CCN[C@@H]1CCc2ccccc21.CS(=O)(=O)O`, the IC50 was above 46 µM.
In the case of `Cc1cc(C)cc(OCC2CNC(=O)O2)c1` (stereo not given), the IC50 was above 46 µM.
Compound `CC1CC(O)CC(C)(C)C1` (stereo not given) registered an IC50 above 46 µM.
Take `C[S+](CC[C@H](N)C(=O)O)C[C@H]1O[C@@H](n2cnc3c(N)ncnc32)[C@H](O)[C@@H]1O.[Cl-]` (stereo not given in full): the IC50 is above 46 µM.
`CCNc1nc(Cl)nc(NCC)n1`: the IC50 is above 46 µM.
As for `COc1ccc2c(c1)C(=O)N(CCc1ccc(S(=O)(=O)NC(=O)NC3CCCCC3)cc1)C(=O)C2(C)C`, the figure is above 46 µM; as for `Cl[C@H](CC4)[C@H](OC)C[C@@H]4/C=[C@](C)/[C@@H](OC([C@]2([H])CCCCN12)=O)[C@H](C)[C@@H](O)CC([C@H](CC)/C=C(C)/C[C@H](C)C[C@H](OC)[C@@]([C@@H](OC)C[C@H]3C)([H])O[C@@]3(O)C(C1=O)=O)=O`, above 46 µM.
In the case of `O=C(c1ccc(F)cc1)C1CCN(CCn2c(=O)[nH]c3ccccc3c2=O)CC1`, the IC50 was above 46 µM.
Compound `CCCCCCCCCCCCCCCCCCCCCC(=O)Nc1ccn([C@@H]2O[C@H](CO)[C@@H](O)[C@@H]2O)c(=O)n1` showed an IC50 above 46 µM.
`O=C([O-])CN(CCN(CC(=O)[O-])CC(=O)[O-])CC(=O)[O-].[Fe+3].[Na+]` came in with an IC50 above 46 µM.
In turn, `COc1ccc(C(=O)c2ccccc2O)c(O)c1` yielded an IC50 above 46 µM.
`COC(=O)c1cccnc1` came in with an IC50 above 46 µM.
The compound `NCCc1ccc(O)cc1` gave an IC50 above 46 µM.
Compound `CCN(CCCCOC(=O)c1ccc(OC)c(OC)c1)C(C)Cc1ccc(OC)cc1.Cl` (stereo not given) yielded an IC50 above 46 µM.
Compound `Cl.NCC(O)c1cccc(O)c1` (stereo not given) came in with an IC50 above 46 µM.
Compound `N=C(N)N1CCc2ccccc2C1.N=C(N)N1CCc2ccccc2C1.O=S(=O)(O)O` came in with an IC50 above 46 µM.
For the compound `O=[C@]([C@H]2N(CCC)CCCC2)NC1=C(C)C=CC=C1C.Cl`, the IC50 was above 46 µM.
In turn, `O=C5O[C@]4(CC5)[C@@]3(C)C[C@@H]6[C@]([C@@]([C@@]([H])3CC4)([H])[C@H]([C@@](OC)=O)C2)(O6)[C@@](C2=C1)(C)CCC1=O` returned an IC50 above 46 µM.
The compound `CC(CN(C)C)C(C)(O)Cc1ccc(Cl)cc1.Cl` (stereo not given) displayed an IC50 above 46 µM.
`CCN(CC)CCOc1ccccc1C(=O)CCc1ccccc1` displayed an IC50 above 46 µM.
With `CCN(CC)CCOC(=O)c1ccc(N)cc1.Cl`, the 50% inhibitory concentration (IC50) is above 46 µM.
`CC(=O)Nc1ccc(C=NNC(N)=S)cc1` displayed a concentration for half-maximal inhibition (IC50) above 46 µM.
As for `CC[C@H](NC(C)C)[C@H](O)c1ccc(O)c2[nH]c(=O)ccc12`, the IC50 was above 46 µM.
The compound `O=[C@](OC)[C@@H]3[C@@]2([H])C[C@@](N4C[C@@]([H])2CC[C@@H]3O)([H])C1=C(CC4)C(C=CC=C5)=C5N1` yielded an IC50 above 46 µM.
In turn, `CO[C@H]1/C=C/O[C@@]2(C)Oc3c(C)c(O)c4c(O)c(cc([O-])c4c3C2=O)NC(=O)/C(C)=C\C=C\[C@H](C)[C@H](O)[C@@H](C)[C@@H](O)[C@@H](C)[C@H](OC(C)=O)[C@@H]1C.[Na+]` returned an IC50 above 46 µM.
Consider `Cl.N=C(N)NC(=N)NCCc1ccccc1`, for which the IC50 was above 46 µM.
In the case of `CNCC(O)c1ccc(O)cc1` (stereo not given) it was above 46 µM; in that of `CCN(CC)CCNC(=O)c1cc(Br)c(N)cc1OC`, above 46 µM.
`COCC(=O)Nc1c(I)c(C(=O)NCC(O)CO)c(I)c(C(=O)N(C)CC(O)CO)c1I` (stereo not given) came in with a concentration for half-maximal inhibition (IC50) above 46 µM.
In turn, `CCC1OC(=O)C[C@@H](O)[C@H](C)[C@@H](O[C@@H]2O[C@H](C)C[C@H](N(C)C)[C@H]2O)[C@@H](CC=O)C[C@@H](C)C(=O)/C=C/[C@]2(C)OC2C1C` (stereo not given in full) gave an IC50 above 46 µM.
In turn, `CN[C@@H]1[C@@H](O)[C@@H](O[C@@H]2[C@H](O)[C@H](O[C@H]3OC(CN)=CC[C@H]3N)[C@@H](N)C[C@H]2N)OC[C@]1(C)O` returned an IC50 above 46 µM.
`Cc1cn([C@H]2C[C@H](N=[N+]=[N-])[C@@H](CO)O2)c(=O)[nH]c1=O` showed an IC50 above 46 µM.
With `CN1[C@@H]2CC[C@H]1C[C@@H](OC(c1ccccc1)c1ccccc1)C2.CS(=O)(=O)O`, the IC50 was above 46 µM.
Regarding `C=CCN1CC[C@]23CCCC[C@H]2[C@H]1Cc1ccc(O)cc13`, the IC50 is above 46 µM.
In the case of `O=C(CCCN1CCC(n2c(=O)[nH]c3ccccc32)CC1)c1ccc(F)cc1` it was above 46 µM; in that of `CC(C(=O)O)c1ccc(CC2CCCC2=O)cc1` (stereo not given), above 46 µM; in that of `C=C1CC[C@@H]2[C@](C)(CO)[C@H](O)CC[C@@]2(C)[C@@H]1C/C=C1/C(=O)OC[C@H]1O`, above 46 µM.
As for `COc1cc(/C=C/C(=O)CC(=O)/C=C/c2ccc(O)c(OC)c2)ccc1O`, the IC50 was above 46 µM.
For the compound `CCC(=O)NCC[C@@H]1CCc2ccc3c(c21)CCO3`, the IC50 was above 46 µM.
In the case of `CC(=O)Nc1ccc(O)cc1` it was above 46 µM; in that of `FC(F)(F)C(F)(F)C(F)(F)C(F)(F)C(F)(F)C(F)(F)F`, above 46 µM.
`Nc1ccncc1` showed an IC50 above 46 µM.
As to `COc1cc(Cc2cnc(N)nc2N)cc(OC)c1OC`, the IC50 is above 46 µM.
For the compound `CC[C@H]1OC(=O)C[C@@H](O)[C@H](C)[C@@H](O[C@@H]2O[C@H](C)[C@@H](O)[C@H](N(C)C)[C@H]2O)[C@@H](CCN2C[C@H](C)C[C@H](C)C2)C[C@@H](C)C(=O)/C=C/C(C)=C/[C@@H]1CO[C@@H]1O[C@H](C)[C@@H](O)[C@@H](OC)[C@H]1OC`, the IC50 was above 46 µM.
In the case of `CCN(CC)CCOC(=O)C(Cc1cccc2ccccc12)CC1CCCO1.O=C(O)C(=O)O` (stereo not given), the IC50 was above 46 µM.
On to `O=C([C@@H]([C@]1=CC=CC=C1)N=C)N[C@@](C2=O)([H])[C@@](N2[C@H]3[C@@]([O-])=O)([H])SC3(C)C.[Na+]`, for which the IC50 is above 46 µM.
